Reference: the NIST ThermoML archive (doi:10.1021/je700026d)

Experiment: xn = mol fraction of the nth substance listed
Settings: Liquid; for speed of sound: 100 kPa, Linear variable-path acoustic interferometer; for mass density: Pycnometric method; for viscosity: Capillary tube (Ostwald / Ubbelohde) method

COCCOC [1,2-dimethoxyethane] + NC=O
298.15 K
Settings | speed of sound [m/s]
x2 = 0 | 1146.2
x2 = 0.1819 | 1200.3
x2 = 0.3334 | 1254.3
x2 = 0.4616 | 1306.2
x2 = 0.5715 | 1355
x2 = 0.6668 | 1399.9
x2 = 0.7501 | 1441.9
x2 = 0.8236 | 1480.5
x2 = 0.8889 | 1518.5
x2 = 0.9474 | 1556.1

Settings | mass density, 298.15 K [kg/m3] | mass density, 308.15 K [kg/m3] | mass density, 318.15 K [kg/m3] | viscosity, 298.15 K [mPa·s] | viscosity, 308.15 K [mPa·s] | viscosity, 318.15 K [mPa·s]
101 kPa, x2 = 0 | 861.5 | 850.7 | 839.6 | – | – | –
101 kPa, x2 = 0.1819 | 893.1 | 883.5 | 874.6 | – | – | –
101 kPa, x2 = 0.3334 | 920.1 | 910.4 | 902.6 | – | – | –
101 kPa, x2 = 0.4616 | 946 | 936.3 | 929.4 | – | – | –
101 kPa, x2 = 0.5715 | 971.8 | 962.3 | 955.9 | – | – | –
101 kPa, x2 = 0.6668 | 997.3 | 988.5 | 982.2 | – | – | –
101 kPa, x2 = 0.7501 | 1022.2 | 1013.6 | 1007.5 | – | – | –
101 kPa, x2 = 0.8236 | 1048.3 | 1039.4 | 1033.3 | – | – | –
101 kPa, x2 = 0.8889 | 1073.7 | 1065.7 | 1059.2 | – | – | –
101 kPa, x2 = 0.9474 | 1100.3 | 1092.7 | 1085.5 | – | – | –
101.3 kPa, x2 = 0 | – | – | – | 0.409 | 0.366 | 0.33
101.3 kPa, x2 = 0.1819 | – | – | – | 0.603 | 0.522 | 0.459
101.3 kPa, x2 = 0.3334 | – | – | – | 0.848 | 0.713 | 0.609
101.3 kPa, x2 = 0.4616 | – | – | – | 1.164 | 0.952 | 0.785
101.3 kPa, x2 = 0.5715 | – | – | – | 1.545 | 1.243 | 0.994
101.3 kPa, x2 = 0.6668 | – | – | – | 1.925 | 1.536 | 1.218
101.3 kPa, x2 = 0.7501 | – | – | – | 2.296 | 1.806 | 1.427
101.3 kPa, x2 = 0.8236 | – | – | – | 2.627 | 2.045 | 1.614
101.3 kPa, x2 = 0.8889 | – | – | – | 2.899 | 2.243 | 1.775
101.3 kPa, x2 = 0.9474 | – | – | – | 3.12 | 2.408 | 1.903

CC(=O)c1ccccc1 [acetophenone] + NC=O
298.15 K
Settings | speed of sound [m/s]
x2 = 0 | 1296.4
x2 = 0.2286 | 1304.8
x2 = 0.4001 | 1323.3
x2 = 0.5334 | 1345.8
x2 = 0.6401 | 1379.3
x2 = 0.7273 | 1413.6
x2 = 0.8001 | 1456.5
x2 = 0.8616 | 1488.4
x2 = 0.9143 | 1527.3
x2 = 0.96 | 1558.9

101.3 kPa
Settings | mass density, 298.15 K [kg/m3] | mass density, 308.15 K [kg/m3] | mass density, 318.15 K [kg/m3] | viscosity, 298.15 K [mPa·s] | viscosity, 308.15 K [mPa·s] | viscosity, 318.15 K [mPa·s]
x2 = 0 | 1023.1 | 1014.8 | 1007.5 | 1.653 | 1.412 | 1.117
x2 = 0.2286 | 1032.9 | 1024.9 | 1017.5 | 2.234 | 1.762 | 1.377
x2 = 0.4001 | 1042.9 | 1035.1 | 1027.5 | 2.795 | 2.077 | 1.607
x2 = 0.5334 | 1053.1 | 1045.3 | 1037.6 | 3.267 | 2.355 | 1.825
x2 = 0.6401 | 1063.3 | 1055.5 | 1047.7 | 3.596 | 2.587 | 1.988
x2 = 0.7273 | 1073.8 | 1065.8 | 1057.9 | 3.778 | 2.724 | 2.1
x2 = 0.8001 | 1084.4 | 1076.3 | 1068.2 | 3.819 | 2.779 | 2.141
x2 = 0.8616 | 1095.3 | 1087 | 1078.7 | 3.735 | 2.748 | 2.111
x2 = 0.9143 | 1106.4 | 1097.9 | 1089.4 | 3.59 | 2.685 | 2.068
x2 = 0.96 | 1117.7 | 1109.1 | 1100.1 | 3.439 | 2.608 | 2.027
